Tests used:
[1] = target: Sphingosine kinase 1 (Homo sapiens) (UniProt Q9NYA1); test: Inhibition of SPHK1 (unknown origin) at 1 uM by mobility shift microfluidics platform based assay relative to control
[2] = target: Serine/threonine-protein kinase TAO3 (Homo sapiens) (UniProt Q9H2K8); test: Inhibition of TAOK3 (unknown origin) at 1 uM by mobility shift microfluidics platform based assay relative to control
[3] = target: Ephrin type-A receptor 3 (Homo sapiens) (UniProt P29320); test: Inhibition of EPH-A3 (unknown origin) at 1 uM by mobility shift microfluidics platform based assay relative to control
[4] = target: Serine/threonine-protein kinase Nek1 (Homo sapiens) (UniProt Q96PY6); test: Inhibition of NEK1 (unknown origin) at 1 uM by mobility shift microfluidics platform based assay relative to control
[5] = target: Serine/threonine-protein kinase DCLK2 (Homo sapiens) (UniProt Q8N568); test: Inhibition of DCAMKL2 (unknown origin) at 1 uM by mobility shift microfluidics platform based assay relative to control
[6] = target: SRSF protein kinase 3 (Homo sapiens) (UniProt Q9UPE1); test: Inhibition of MSSK1 (unknown origin) at 1 uM by mobility shift microfluidics platform based assay relative to control
[7] = target: Leukocyte tyrosine kinase receptor (Homo sapiens) (UniProt P29376); test: Inhibition of LTK (unknown origin) at 1 uM by mobility shift microfluidics platform based assay relative to control
[8] = target: STE20-like serine/threonine-protein kinase (Homo sapiens) (UniProt Q9H2G2); test: Inhibition of SLK (unknown origin) at 1 uM by mobility shift microfluidics platform based assay relative to control
[9] = target: Tyrosine-protein kinase Lck (Homo sapiens) (UniProt P06239); test: Inhibition of LCK (unknown origin) at 1 uM by mobility shift microfluidics platform based assay relative to control
[10] = target: Hepatocyte growth factor receptor (Homo sapiens) (UniProt P08581); test: Inhibition of MET (unknown origin) at 1 uM by mobility shift microfluidics platform based assay relative to control
[11] = target: Serine/threonine-protein kinase PLK3 (Homo sapiens) (UniProt Q9H4B4); test: Inhibition of PLK3 (unknown origin) at 1 uM by mobility shift microfluidics platform based assay relative to control
[12] = target: Epidermal growth factor receptor (Homo sapiens) (UniProt P00533); test: Inhibition of EGFR (unknown origin) at 1 uM by mobility shift microfluidics platform based assay relative to control
[13] = target: Tyrosine-protein kinase Lyn (Homo sapiens) (UniProt P07948); test: Inhibition of LYNB (unknown origin) at 1 uM by mobility shift microfluidics platform based assay relative to control
[14] = target: Rho-associated protein kinase 2 (Homo sapiens) (UniProt O75116); test: Inhibition of ROCK2 (unknown origin) at 1 uM by mobility shift microfluidics platform based assay relative to control
[15] = target: Mitogen-activated protein kinase 11 (Homo sapiens) (UniProt Q15759); test: Inhibition of P38-beta (unknown origin) at 1 uM by mobility shift microfluidics platform based assay relative to control
[16] = target: Dual specificity tyrosine-phosphorylation-regulated kinase 4 (Homo sapiens) (UniProt Q9NR20); test: Inhibition of DYRK4 (unknown origin) at 1 uM by mobility shift microfluidics platform based assay relative to control
[17] = target: Serine/threonine-protein kinase Sgk1 (Homo sapiens) (UniProt O00141); test: Inhibition of SGK1 (unknown origin) at 1 uM by mobility shift microfluidics platform based assay relative to control
[18] = target: Serine/threonine-protein kinase PAK 4 (Homo sapiens) (UniProt O96013); test: Inhibition of PAK4 (unknown origin) at 1 uM by mobility shift microfluidics platform based assay relative to control
[19] = target: Non-receptor tyrosine-protein kinase TNK1 (Homo sapiens) (UniProt Q13470); test: Inhibition of TNK1 (unknown origin) at 1 uM by mobility shift microfluidics platform based assay relative to control
[20] = target: Dual specificity protein kinase CLK3 (Homo sapiens) (UniProt P49761); test: Inhibition of CLK3 (unknown origin) at 1 uM by mobility shift microfluidics platform based assay relative to control
[21] = target: Focal adhesion kinase 1 (Homo sapiens) (UniProt Q05397); test: Inhibition of FAK (unknown origin) at 1 uM by mobility shift microfluidics platform based assay relative to control
[22] = target: Calcium/calmodulin-dependent protein kinase type II subunit gamma (Homo sapiens) (UniProt Q13555); test: Inhibition of CAMK2G (unknown origin) at 1 uM by mobility shift microfluidics platform based assay relative to control
[23] = target: Serine/threonine-protein kinase PAK 1 (Homo sapiens) (UniProt Q13153); test: Inhibition of PAK1 (unknown origin) at 1 uM by mobility shift microfluidics platform based assay relative to control
[24] = target: Calcium/calmodulin-dependent protein kinase type 1 (Homo sapiens) (UniProt Q14012); test: Inhibition of CAMK1A (unknown origin) at 1 uM by mobility shift microfluidics platform based assay relative to control
[25] = target: Serine/threonine-protein kinase BRSK1 (Homo sapiens) (UniProt Q8TDC3); test: Inhibition of BRSK1 (unknown origin) at 1 uM by mobility shift microfluidics platform based assay relative to control
[26] = target: Mitogen-activated protein kinase 13 (Homo sapiens) (UniProt O15264); test: Inhibition of P38-delta (unknown origin) at 1 uM by mobility shift microfluidics platform based assay relative to control
[27] = target: Tyrosine-protein kinase JAK2 (Homo sapiens) (UniProt O60674); test: Inhibition of JAK2 (unknown origin) at 1 uM by mobility shift microfluidics platform based assay relative to control
[28] = target: Tyrosine-protein kinase Yes (Homo sapiens) (UniProt P07947); test: Inhibition of YES (unknown origin) at 1 uM by mobility shift microfluidics platform based assay relative to control
[29] = target: Ephrin type-B receptor 1 (Homo sapiens) (UniProt P54762); test: Inhibition of EPH-B1 (unknown origin) at 1 uM by mobility shift microfluidics platform based assay relative to control
[30] = target: Tyrosine-protein kinase Fes/Fps (Homo sapiens) (UniProt P07332); test: Inhibition of FES (unknown origin) at 1 uM by mobility shift microfluidics platform based assay relative to control
[31] = target: Serine/threonine-protein kinase haspin (Homo sapiens) (UniProt Q8TF76); test: Inhibition of HASPIN (unknown origin) at 1 uM by mobility shift microfluidics platform based assay relative to control
[32] = target: Interleukin-1 receptor-associated kinase 1 (Homo sapiens) (UniProt P51617); test: Inhibition of IRAK1 (unknown origin) at 1 uM by mobility shift microfluidics platform based assay relative to control
[33] = target: Proto-oncogene tyrosine-protein kinase Src (Homo sapiens) (UniProt P12931); test: Inhibition of SRC (unknown origin) at 1 uM by mobility shift microfluidics platform based assay relative to control
[34] = target: Tyrosine-protein kinase JAK1 (Homo sapiens) (UniProt P23458); test: Inhibition of JAK1 (unknown origin) at 1 uM by mobility shift microfluidics platform based assay relative to control

Sequence of Sphingosine kinase 1 (Homo sapiens) (Q9NYA1 whole entry): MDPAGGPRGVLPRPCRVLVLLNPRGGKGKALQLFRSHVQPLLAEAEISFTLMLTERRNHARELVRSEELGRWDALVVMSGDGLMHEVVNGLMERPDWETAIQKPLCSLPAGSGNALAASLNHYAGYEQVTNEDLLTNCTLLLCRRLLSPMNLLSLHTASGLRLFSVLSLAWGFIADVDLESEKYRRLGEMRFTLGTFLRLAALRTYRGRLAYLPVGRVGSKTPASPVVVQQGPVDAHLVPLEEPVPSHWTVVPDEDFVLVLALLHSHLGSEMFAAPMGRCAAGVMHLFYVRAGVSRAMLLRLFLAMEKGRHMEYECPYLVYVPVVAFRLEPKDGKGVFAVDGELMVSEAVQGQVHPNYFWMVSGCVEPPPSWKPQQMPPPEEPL
Sequence of Serine/threonine-protein kinase BRSK1 (Homo sapiens) (Q8TDC3 whole entry): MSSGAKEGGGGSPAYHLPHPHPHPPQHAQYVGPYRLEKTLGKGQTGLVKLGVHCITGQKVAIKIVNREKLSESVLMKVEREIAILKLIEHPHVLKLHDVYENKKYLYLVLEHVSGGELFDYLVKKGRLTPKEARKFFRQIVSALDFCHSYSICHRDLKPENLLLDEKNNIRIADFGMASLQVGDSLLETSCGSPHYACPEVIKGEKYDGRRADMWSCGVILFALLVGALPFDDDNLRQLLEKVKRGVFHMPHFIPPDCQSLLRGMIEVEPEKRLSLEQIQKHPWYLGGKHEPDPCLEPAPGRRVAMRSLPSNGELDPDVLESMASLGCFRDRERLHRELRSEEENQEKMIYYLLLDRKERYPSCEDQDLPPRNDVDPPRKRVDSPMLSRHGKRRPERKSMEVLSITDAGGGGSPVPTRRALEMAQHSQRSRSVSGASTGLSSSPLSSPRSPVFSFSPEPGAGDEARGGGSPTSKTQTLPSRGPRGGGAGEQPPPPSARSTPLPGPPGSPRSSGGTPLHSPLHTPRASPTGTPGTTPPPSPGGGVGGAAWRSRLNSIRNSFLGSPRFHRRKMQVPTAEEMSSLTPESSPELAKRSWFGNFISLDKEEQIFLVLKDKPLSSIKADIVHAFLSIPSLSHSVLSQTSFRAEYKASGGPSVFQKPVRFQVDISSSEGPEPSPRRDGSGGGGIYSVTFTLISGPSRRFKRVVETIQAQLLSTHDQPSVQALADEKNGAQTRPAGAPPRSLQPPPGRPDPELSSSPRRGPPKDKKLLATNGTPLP
Sequence of Ephrin type-B receptor 1 (Homo sapiens) (P54762 whole entry): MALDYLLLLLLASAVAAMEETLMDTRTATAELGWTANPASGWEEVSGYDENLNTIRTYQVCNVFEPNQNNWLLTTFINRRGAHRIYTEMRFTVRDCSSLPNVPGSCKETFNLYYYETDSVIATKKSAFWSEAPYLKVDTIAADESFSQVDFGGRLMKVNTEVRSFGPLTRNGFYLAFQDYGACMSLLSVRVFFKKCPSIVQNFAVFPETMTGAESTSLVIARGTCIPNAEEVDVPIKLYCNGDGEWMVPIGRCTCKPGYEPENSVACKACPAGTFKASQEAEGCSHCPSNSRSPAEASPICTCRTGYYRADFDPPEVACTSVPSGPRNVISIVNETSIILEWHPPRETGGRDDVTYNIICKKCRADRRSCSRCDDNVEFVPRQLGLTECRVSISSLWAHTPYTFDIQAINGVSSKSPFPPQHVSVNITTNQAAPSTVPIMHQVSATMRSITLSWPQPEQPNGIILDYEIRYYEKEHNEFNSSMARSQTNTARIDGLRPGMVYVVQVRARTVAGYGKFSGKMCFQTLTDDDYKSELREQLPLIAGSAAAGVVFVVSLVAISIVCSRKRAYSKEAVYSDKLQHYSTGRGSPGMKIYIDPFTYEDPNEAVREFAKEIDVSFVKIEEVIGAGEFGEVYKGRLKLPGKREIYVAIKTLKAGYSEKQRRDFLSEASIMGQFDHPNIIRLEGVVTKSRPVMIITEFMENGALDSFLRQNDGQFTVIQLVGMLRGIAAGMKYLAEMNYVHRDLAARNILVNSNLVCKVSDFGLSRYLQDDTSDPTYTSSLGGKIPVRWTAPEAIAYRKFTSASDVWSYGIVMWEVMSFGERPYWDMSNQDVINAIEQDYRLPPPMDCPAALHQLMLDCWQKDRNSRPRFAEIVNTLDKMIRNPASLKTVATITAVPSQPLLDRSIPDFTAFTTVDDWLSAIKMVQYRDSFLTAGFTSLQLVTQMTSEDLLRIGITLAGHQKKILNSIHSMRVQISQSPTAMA
Sequence of Tyrosine-protein kinase Lyn (Homo sapiens) (P07948 2-512 limits assumed): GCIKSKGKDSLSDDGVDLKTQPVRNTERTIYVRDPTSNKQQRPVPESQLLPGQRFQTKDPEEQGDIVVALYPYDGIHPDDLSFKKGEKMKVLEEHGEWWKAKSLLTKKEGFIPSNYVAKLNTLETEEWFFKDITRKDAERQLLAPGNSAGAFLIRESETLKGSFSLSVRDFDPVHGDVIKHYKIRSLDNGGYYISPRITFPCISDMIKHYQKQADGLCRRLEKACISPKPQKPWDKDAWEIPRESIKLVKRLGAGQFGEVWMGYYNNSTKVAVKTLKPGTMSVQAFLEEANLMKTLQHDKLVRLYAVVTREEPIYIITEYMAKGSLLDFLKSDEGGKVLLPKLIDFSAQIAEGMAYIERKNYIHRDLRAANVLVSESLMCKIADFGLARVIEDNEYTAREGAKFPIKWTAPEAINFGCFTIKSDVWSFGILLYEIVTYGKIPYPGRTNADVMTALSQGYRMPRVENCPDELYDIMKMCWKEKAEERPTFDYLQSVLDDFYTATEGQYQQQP
Sequence of Hepatocyte growth factor receptor (Homo sapiens) (P08581 whole entry): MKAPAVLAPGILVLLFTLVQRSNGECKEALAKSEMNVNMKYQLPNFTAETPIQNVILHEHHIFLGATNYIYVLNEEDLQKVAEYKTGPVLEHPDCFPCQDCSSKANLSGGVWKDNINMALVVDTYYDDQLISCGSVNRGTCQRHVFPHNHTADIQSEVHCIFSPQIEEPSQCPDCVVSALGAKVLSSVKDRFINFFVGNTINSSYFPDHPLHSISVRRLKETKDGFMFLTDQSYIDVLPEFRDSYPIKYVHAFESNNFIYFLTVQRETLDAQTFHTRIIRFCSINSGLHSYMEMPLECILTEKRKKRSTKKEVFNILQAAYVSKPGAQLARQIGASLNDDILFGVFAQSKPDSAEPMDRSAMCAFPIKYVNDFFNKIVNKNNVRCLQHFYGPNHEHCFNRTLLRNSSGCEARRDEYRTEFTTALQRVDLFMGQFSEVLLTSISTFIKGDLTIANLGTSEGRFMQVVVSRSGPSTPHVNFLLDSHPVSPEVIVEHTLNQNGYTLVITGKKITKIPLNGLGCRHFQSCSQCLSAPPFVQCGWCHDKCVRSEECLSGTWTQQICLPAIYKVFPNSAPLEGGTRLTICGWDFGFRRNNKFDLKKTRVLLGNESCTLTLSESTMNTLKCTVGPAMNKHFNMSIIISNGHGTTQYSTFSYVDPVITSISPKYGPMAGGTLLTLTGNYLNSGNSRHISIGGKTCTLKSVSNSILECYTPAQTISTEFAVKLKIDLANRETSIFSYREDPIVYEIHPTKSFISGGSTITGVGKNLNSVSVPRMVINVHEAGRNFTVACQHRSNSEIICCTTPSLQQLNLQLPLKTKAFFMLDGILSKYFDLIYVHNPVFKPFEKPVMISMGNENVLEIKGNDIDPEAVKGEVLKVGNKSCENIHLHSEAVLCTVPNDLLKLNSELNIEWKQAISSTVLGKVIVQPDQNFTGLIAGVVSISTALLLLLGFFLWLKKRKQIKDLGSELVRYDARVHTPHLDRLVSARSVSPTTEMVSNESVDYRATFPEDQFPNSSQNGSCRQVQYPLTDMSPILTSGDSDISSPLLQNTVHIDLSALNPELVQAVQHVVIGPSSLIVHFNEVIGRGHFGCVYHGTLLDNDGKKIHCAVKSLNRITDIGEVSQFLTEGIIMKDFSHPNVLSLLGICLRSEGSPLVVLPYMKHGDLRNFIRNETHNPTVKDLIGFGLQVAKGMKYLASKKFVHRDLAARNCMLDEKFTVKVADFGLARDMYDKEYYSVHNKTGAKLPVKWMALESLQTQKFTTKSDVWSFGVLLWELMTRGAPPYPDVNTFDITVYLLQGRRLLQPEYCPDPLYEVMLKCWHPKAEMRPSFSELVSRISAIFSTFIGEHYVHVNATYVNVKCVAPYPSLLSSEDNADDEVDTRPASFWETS
Sequence of Mitogen-activated protein kinase 13 (Homo sapiens) (O15264 whole entry): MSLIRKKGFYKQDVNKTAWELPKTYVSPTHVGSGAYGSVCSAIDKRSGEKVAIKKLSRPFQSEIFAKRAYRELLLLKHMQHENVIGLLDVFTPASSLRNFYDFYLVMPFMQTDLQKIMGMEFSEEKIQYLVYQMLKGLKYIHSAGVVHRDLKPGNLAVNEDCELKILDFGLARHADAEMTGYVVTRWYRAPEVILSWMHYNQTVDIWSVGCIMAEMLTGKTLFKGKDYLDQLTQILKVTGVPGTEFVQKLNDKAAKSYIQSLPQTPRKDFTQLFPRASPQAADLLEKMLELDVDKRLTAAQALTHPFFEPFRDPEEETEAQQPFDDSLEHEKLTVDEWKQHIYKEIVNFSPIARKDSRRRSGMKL
Sequence of Dual specificity protein kinase CLK3 (Homo sapiens) (P49761 whole entry, looked up): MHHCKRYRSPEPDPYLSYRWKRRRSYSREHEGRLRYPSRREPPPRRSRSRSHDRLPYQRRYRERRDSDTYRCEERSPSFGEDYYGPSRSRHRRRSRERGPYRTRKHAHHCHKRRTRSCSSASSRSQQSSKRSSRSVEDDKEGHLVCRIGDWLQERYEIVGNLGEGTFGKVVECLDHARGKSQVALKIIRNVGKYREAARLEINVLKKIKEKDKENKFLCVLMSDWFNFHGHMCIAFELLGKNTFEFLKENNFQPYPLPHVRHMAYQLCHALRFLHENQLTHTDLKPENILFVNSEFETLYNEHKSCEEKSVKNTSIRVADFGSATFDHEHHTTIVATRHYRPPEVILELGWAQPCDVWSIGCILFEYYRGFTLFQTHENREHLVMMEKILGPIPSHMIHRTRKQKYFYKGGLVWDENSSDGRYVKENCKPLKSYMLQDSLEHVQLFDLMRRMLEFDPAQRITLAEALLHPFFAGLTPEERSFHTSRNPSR

SMILES	inhibition [1] [%]	inhibition [2] [%]	inhibition [3] [%]	inhibition [4] [%]	inhibition [5] [%]	inhibition [6] [%]	inhibition [7] [%]	inhibition [8] [%]	inhibition [9] [%]	inhibition [10] [%]	inhibition [11] [%]	inhibition [12] [%]	inhibition [13] [%]	inhibition [14] [%]	inhibition [15] [%]	inhibition [16] [%]	inhibition [17] [%]	inhibition [18] [%]	inhibition [19] [%]	inhibition [20] [%]	other results
CC(C)n1nc(C#Cc2cccc(NC(=O)c3cccc(C(F)(F)F)c3)c2)c2c(N)ncnc21	2	37	98	-1	0	9	4	92	100	8	3	55	100	18	23	-1	-1	0	84	-1	inhibition [21]: -8%; inhibition [22]: 0%; inhibition [23]: 0%; inhibition [24]: 2%; inhibition [25]: -10%; inhibition [26]: 0%; inhibition [27]: 77%; inhibition [28]: 101%; inhibition [29]: 97%; inhibition [30]: 21%; inhibition [31]: 5%; inhibition [32]: 28%; inhibition [33]: 100%; inhibition [34]: 97%
CC(C)n1nc(C#Cc2cccc3cc(-c4cccc(C(F)(F)F)c4)ncc23)c2c(N)ncnc21	4	33	76	-5	-1	0	8	18	85	-1	0	3	94	4	3	-7	0	2	19	6	inhibition [21]: 3%; inhibition [22]: 2%; inhibition [23]: -1%; inhibition [24]: 1%; inhibition [25]: 0%; inhibition [26]: 2%; inhibition [27]: 3%; inhibition [28]: 88%; inhibition [29]: 84%; inhibition [30]: 0%; inhibition [31]: 1%; inhibition [32]: -3%; inhibition [33]: 80%; inhibition [34]: -3%

From ChEMBL document CHEMBL4229333, “Effects of rigidity on the selectivity of protein kinase inhibitors” (Eur J Med Chem, 2018)
